The source of these data is PMC10212229 (Pharmaceutical Research, 2023).

“Also recorded” adds a separate entry of the source.

The nature of data set [1]: Clinical pharmacokinetics of nirmatrelvir in healthy volunteers. The data set is classed as in vivo, human. Particulars: for renal clearance in the presence and absence of ritonavir: with vs without ritonavir.
For a further data set, the system named is CYP3A4. To be noted: cited from earlier work.
In the next data set the test system is MDCK-LE. Particulars: cited from earlier work.
The nature of data set [2]: Paxlovid PBPK model verification, nirmatrelvir predicted vs observed exposure. On the set-up: species or system human.
Another data set deals with Caco-2. Particulars: cited from earlier work.
The conditions of data set [3]: without ritonavir coadministration; cited from earlier work.
The nature of data set [4]: In vitro precipitation test of nirmatrelvir SDD formulation. The data set is classed as physicochemical. Particulars: Pfizer data on file.
The nature of data set [5]: Simcyp ritonavir first-order compound file. On the set-up: species or system human. Particulars: PK and DDI.

Turning to `CC(C)(C)[C@H](NC(=O)C(F)(F)F)C(=O)N1C[C@H]2[C@@H]([C@H]1C(=O)N[C@H](C#N)C[C@@H]1CCNC1=O)C2(C)C` [Nirmatrelvir, nirmatrelvir], in data set [1] (SDD 300 mg single dose without ritonavir, Dataset #1, geometric mean), the “oral clearance (CLPO)” value was found to be 28.36 L/h. In addition, the “renal clearance in the presence and absence of ritonavir” value in data set [1] was “did not change”; in data set [1] (listed as nirmatrelvir) it was “remains the same”. Further, the “in vitro fm,CYP3A4” value in the data set with CYP3A4 (formation rate of the major metabolites with selective inhibitors) is on record as 0.99. In addition, the main metabolizing enzyme entry in the data set on CYP3A4 (in vitro reaction phenotyping data) is “mainly metabolized by CYP3A4; also recorded: predominantly metabolized by CYP3A4”. Also, the Papp in the data set with MDCK-LE is given as 1.76 10^–6 cm/s; with Caco-2, 0.66–1.19 10^–6 cm/s. Also, in data set [2], the “deviation of predicted AUC and Cmax from the observed” value was no more than 20%. The half-life in data set [3] is 2 h. Moreover, the “period remained in solution without precipitating” value in data set [4] was 24 h.

Take `CC(C)c1nc(CN(C)C(=O)N[C@H](C(=O)N[C@@H](Cc2ccccc2)C[C@H](O)[C@H](Cc2ccccc2)NC(=O)OCc2cncs2)C(C)C)cs1` [Ritonavir, ritonavir]: the “predicted vs observed values, ritonavir model” value in data set [5] is recorded as “within twofold”.

A word on the half-life: it is the time needed for the level to fall by half in the phase considered.
